# Experimental data published in patent US4479943A, “3-Demethoxyistamycin B, the 2"-N-formimidoyl derivative thereof and pharmaceutical composition containing same” (Zaidan Hojin Biseibutsu Kagaku Kenkyu Kai, priority 1982, dated 1984).
# Legend:
# [1] = tested on: Staphylococcus aureus FDA 209P; assay: Antibacterial MIC, standard serial dilution; format: cell-based; details: nutrient agar, 37° C., 17 hours, as free base
# [2] = tested on: Staphylococcus aureus Smith; assay: Antibacterial MIC, standard serial dilution; format: cell-based; details: nutrient agar, 37° C., 17 hours, as free base
# [3] = tested on: Staphylococcus aureus Ap01; assay: Antibacterial MIC, standard serial dilution; format: cell-based; details: nutrient agar, 37° C., 17 hours, as free base
# [4] = tested on: Staphylococcus epidermidis 109; assay: Antibacterial MIC, standard serial dilution; format: cell-based; details: nutrient agar, 37° C., 17 hours, as free base
# [5] = tested on: Micrococcus flavus FDA 16; assay: Antibacterial MIC, standard serial dilution; format: cell-based; details: nutrient agar, 37° C., 17 hours, as free base
# [6] = tested on: Sarcina lutea PCI 1001; assay: Antibacterial MIC, standard serial dilution; format: cell-based; details: nutrient agar, 37° C., 17 hours, as free base
# [7] = tested on: Bacillus anthracis; format: cell-based; details: nutrient agar, 37° C., 17 hours, as free base
# [8] = tested on: Bacillus subtilis PCI 219; assay: Antibacterial MIC, standard serial dilution; format: cell-based; details: nutrient agar, 37° C., 17 hours, as free base
# [9] = tested on: Bacillus subtilis NRRL B-558; assay: Antibacterial MIC, standard serial dilution; format: cell-based; details: nutrient agar, 37° C., 17 hours, as free base
# [10] = tested on: Bacillus cereus ATCC 10702; assay: Antibacterial MIC, standard serial dilution; format: cell-based; details: nutrient agar, 37° C., 17 hours, as free base
# [11] = tested on: Corynebacterium bovis 1810; assay: Antibacterial MIC, standard serial dilution; format: cell-based; details: nutrient agar, 37° C., 17 hours, as free base
# [12] = tested on: Mycobacterium smegmatis ATCC 607; assay: Antibacterial MIC, standard serial dilution; format: cell-based; details: nutrient agar, 37° C., 17 hours, as free base
# [13] = tested on: Escherichia coli NIHJ; assay: Antibacterial MIC, standard serial dilution; format: cell-based; details: nutrient agar, 37° C., 17 hours, as free base
# [14] = tested on: Escherichia coli K-12; assay: Antibacterial MIC, standard serial dilution; format: cell-based; details: nutrient agar, 37° C., 17 hours, as free base
# [15] = tested on: Escherichia coli K-12 R5; assay: Antibacterial MIC, standard serial dilution; format: cell-based; details: nutrient agar, 37° C., 17 hours, as free base
# [16] = tested on: Escherichia coli K-12 R388; assay: Antibacterial MIC, standard serial dilution; format: cell-based; details: nutrient agar, 37° C., 17 hours, as free base
# [17] = tested on: Escherichia coli K-12 J5R11-2; assay: Antibacterial MIC, standard serial dilution; format: cell-based; details: nutrient agar, 37° C., 17 hours, as free base
# [18] = tested on: Escherichia coli K-12 ML1629; assay: Antibacterial MIC, standard serial dilution; format: cell-based; details: nutrient agar, 37° C., 17 hours, as free base
# [19] = tested on: Escherichia coli K-12 ML1630; assay: Antibacterial MIC, standard serial dilution; format: cell-based; details: nutrient agar, 37° C., 17 hours, as free base
# [20] = tested on: Escherichia coli K-12 ML1410; assay: Antibacterial MIC, standard serial dilution; format: cell-based; details: nutrient agar, 37° C., 17 hours, as free base
# [21] = tested on: Escherichia coli K-12 LA290 R55; assay: Antibacterial MIC, standard serial dilution; format: cell-based; details: nutrient agar, 37° C., 17 hours, as free base
# [22] = tested on: Escherichia coli K-12 LA290 R56; assay: Antibacterial MIC, standard serial dilution; format: cell-based; details: nutrient agar, 37° C., 17 hours, as free base
# [23] = tested on: Escherichia coli W677; assay: Antibacterial MIC, standard serial dilution; format: cell-based; details: nutrient agar, 37° C., 17 hours, as free base
# [24] = tested on: Escherichia coli JR66/W677; assay: Antibacterial MIC, standard serial dilution; format: cell-based; details: nutrient agar, 37° C., 17 hours, as free base
# [25] = tested on: Escherichia coli JR225; assay: Antibacterial MIC, standard serial dilution; format: cell-based; details: nutrient agar, 37° C., 17 hours, as free base
# [26] = tested on: Klebsiella pneumoniae PCI602; assay: Antibacterial MIC, standard serial dilution; format: cell-based; details: nutrient agar, 37° C., 17 hours, as free base
# [27] = tested on: Klebsiella pneumoniae 22#3038; assay: Antibacterial MIC, standard serial dilution; format: cell-based; details: nutrient agar, 37° C., 17 hours, as free base
# [28] = tested on: Shigella dysenteriae JS11910; assay: Antibacterial MIC, standard serial dilution; format: cell-based; details: nutrient agar, 37° C., 17 hours, as free base
# [29] = tested on: Salmonella typhi T-63; assay: Antibacterial MIC, standard serial dilution; format: cell-based; details: nutrient agar, 37° C., 17 hours, as free base
# [30] = tested on: Salmonella enteritidis 1891; assay: Antibacterial MIC, standard serial dilution; format: cell-based; details: nutrient agar, 37° C., 17 hours, as free base
# [31] = tested on: Proteus vulgaris 0X19; assay: Antibacterial MIC, standard serial dilution; format: cell-based; details: nutrient agar, 37° C., 17 hours, as free base
# [32] = tested on: Proteus rettgeri GN311; assay: Antibacterial MIC, standard serial dilution; format: cell-based; details: nutrient agar, 37° C., 17 hours, as free base
# [33] = tested on: Proteus rettgeri GN466; assay: Antibacterial MIC, standard serial dilution; format: cell-based; details: nutrient agar, 37° C., 17 hours, as free base
# [34] = tested on: Serratia marcescens; assay: Antibacterial MIC, standard serial dilution; format: cell-based; details: nutrient agar, 37° C., 17 hours, as free base
# [35] = tested on: Serratia sp. SOU; assay: Antibacterial MIC, standard serial dilution; format: cell-based; details: nutrient agar, 37° C., 17 hours, as free base
# [36] = tested on: Serratia sp. 4; assay: Antibacterial MIC, standard serial dilution; format: cell-based; details: nutrient agar, 37° C., 17 hours, as free base
# [37] = tested on: Providencia sp. Pv16; assay: Antibacterial MIC, standard serial dilution; format: cell-based; details: nutrient agar, 37° C., 17 hours, as free base
# [38] = tested on: Providencia sp. 2991; assay: Antibacterial MIC, standard serial dilution; format: cell-based; details: nutrient agar, 37° C., 17 hours, as free base
# [39] = tested on: Pseudomonas aeruginosa A3; assay: Antibacterial MIC, standard serial dilution; format: cell-based; details: nutrient agar, 37° C., 17 hours, as free base
# [40] = tested on: Pseudomonas aeruginosa No. 12; assay: Antibacterial MIC, standard serial dilution; format: cell-based; details: nutrient agar, 37° C., 17 hours, as free base
# [41] = tested on: Pseudomonas aeruginosa H9; assay: Antibacterial MIC, standard serial dilution; format: cell-based; details: nutrient agar, 37° C., 17 hours, as free base
# [42] = tested on: Pseudomonas aeruginosa H11; assay: Antibacterial MIC, standard serial dilution; format: cell-based; details: nutrient agar, 37° C., 17 hours, as free base
# [43] = tested on: Pseudomonas aeruginosa TI-13; assay: Antibacterial MIC, standard serial dilution; format: cell-based; details: nutrient agar, 37° C., 17 hours, as free base
# [44] = tested on: Pseudomonas aeruginosa GN315; assay: Antibacterial MIC, standard serial dilution; format: cell-based; details: nutrient agar, 37° C., 17 hours, as free base
# [45] = tested on: Pseudomonas aeruginosa 99; assay: Antibacterial MIC, standard serial dilution; format: cell-based; details: nutrient agar, 37° C., 17 hours, as free base
# [46] = tested on: Pseudomonas aeruginosa B-13; assay: Antibacterial MIC, standard serial dilution; format: cell-based; details: nutrient agar, 37° C., 17 hours, as free base
# [47] = tested on: Pseudomonas aeruginosa 21-75; assay: Antibacterial MIC, standard serial dilution; format: cell-based; details: nutrient agar, 37° C., 17 hours, as free base
# [48] = tested on: Pseudomonas aeruginosa PST1; assay: Antibacterial MIC, standard serial dilution; format: cell-based; details: nutrient agar, 37° C., 17 hours, as free base
# [49] = tested on: Pseudomonas aeruginosa ROS 134/PU21; assay: Antibacterial MIC, standard serial dilution; format: cell-based; details: nutrient agar, 37° C., 17 hours, as free base
# [50] = tested on: Pseudomonas aeruginosa K-Ps 102; assay: Antibacterial MIC, standard serial dilution; format: cell-based; details: nutrient agar, 37° C., 17 hours, as free base
# [51] = tested on: Pseudomonas maltophilia GN 907; assay: Antibacterial MIC, standard serial dilution; format: cell-based; details: nutrient agar, 37° C., 17 hours, as free base
# [52] = tested on: bacteria; details: in words; earlier work; cited from earlier work
# [53] = tested on: Escherichia coli K-12 C600 R135; assay: Antibacterial MIC, standard serial dilution; format: cell-based; details: nutrient agar, 37° C., 17 hours, as free base
smiles,measurement,setting,value
"CNCC1CCC(N)C(OC2C(N)CC(O)C(N(C)C(=O)CNC=N)C2O)O1 (centres unmarked) [Demethyl formimidoyl ista B, 3-O-demethyl-2""-N-formimidoylistamycin B]",MIC,[1],0.39 µg/mL
same,MIC,[2],< 0.20 µg/mL
same,MIC,[3],0.39 µg/mL
same,MIC,[4],0.20 µg/mL
same,MIC,[5],0.39 µg/mL
same,MIC,[6],0.39 µg/mL
same,MIC,[7],0.39 µg/mL
same,MIC,[8],0.20 µg/mL
same,MIC,[9],< 0.20 µg/mL
same,MIC,[10],0.78 µg/mL
same,MIC,[11],< 0.20 µg/mL
same,MIC,[12],0.39 µg/mL
same,MIC,[13],0.39 µg/mL
same,MIC,[14],0.78 µg/mL
same,MIC,[15],0.78 µg/mL
same,MIC,[16],0.78 µg/mL
same,MIC,[17],1.56 µg/mL
same,MIC,[18],0.78 µg/mL
same,MIC,[19],1.56 µg/mL
same,MIC,[20],1.56 µg/mL
same,MIC,[21],0.78 µg/mL
same,MIC,[22],0.78 µg/mL
same,MIC,[23],0.39 µg/mL
same,MIC,[24],1.56 µg/mL
same,MIC,[25],0.39 µg/mL
same,MIC,[26],0.78 µg/mL
same,MIC,[27],1.56 µg/mL
same,MIC,[28],1.56 µg/mL
same,MIC,[29],< 0.20 µg/mL
same,MIC,[30],1.56 µg/mL
same,MIC,[31],0.39 µg/mL
same,MIC,[32],0.39 µg/mL
same,MIC,[33],0.39 µg/mL
same,MIC,[34],1.56 µg/mL
same,MIC,[35],12.5 µg/mL
same,MIC,[36],12.5 µg/mL
same,MIC,[37],0.78 µg/mL
same,MIC,[38],0.78 µg/mL
same,MIC,[39],0.20 µg/mL
same,MIC,[40],12.5 µg/mL
same,MIC,[41],12.5 µg/mL
same,MIC,[42],25 µg/mL
same,MIC,[43],12.5 µg/mL
same,MIC,[44],6.25 µg/mL
same,MIC,[45],100 µg/mL
same,MIC,[46],100 µg/mL
same,MIC,[47],25 µg/mL
same,MIC,[48],25 µg/mL
same,MIC,[49],100 µg/mL
same,MIC,[50],12.5 µg/mL
same,MIC,[51],> 100 µg/mL
same,antibacterial activity,[52],active not only against Pseudomonas aeruginosa but also against a variety of resistant bacteria
"CNCC1CCC(N)C(OC2C(N)CC(O)C(N(C)C(=O)CN)C2O)O1 (centres unmarked) [Demethyl ista B, 3-O-demethylistamycin B]",MIC,[1],0.39 µg/mL
same,MIC,[2],0.39 µg/mL
same,MIC,[3],0.39 µg/mL
same,MIC,[4],0.39 µg/mL
same,MIC,[5],3.13 µg/mL
same,MIC,[6],0.39 µg/mL
same,MIC,[7],0.78 µg/mL
same,MIC,[8],0.39 µg/mL
same,MIC,[9],0.39 µg/mL
same,MIC,[10],1.56 µg/mL
same,MIC,[11],0.39 µg/mL
same,MIC,[12],0.78 µg/mL
same,MIC,[13],0.39 µg/mL
same,MIC,[14],0.78 µg/mL
same,MIC,[16],0.78 µg/mL
same,MIC,[17],1.56 µg/mL
same,MIC,[18],1.56 µg/mL
same,MIC,[19],3.13 µg/mL
same,MIC,[20],3.13 µg/mL
same,MIC,[21],0.78 µg/mL
same,MIC,[22],0.78 µg/mL
same,MIC,[23],0.78 µg/mL
same,MIC,[24],1.56 µg/mL
same,MIC,[53],1.56 µg/mL
same,MIC,[25],0.78 µg/mL
same,MIC,[26],1.56 µg/mL
same,MIC,[27],3.13 µg/mL
same,MIC,[28],3.13 µg/mL
same,MIC,[29],0.39 µg/mL
same,MIC,[30],1.56 µg/mL
same,MIC,[31],0.39 µg/mL
same,MIC,[32],0.39 µg/mL
same,MIC,[33],0.39 µg/mL
same,MIC,[34],1.56 µg/mL
same,MIC,[35],6.25 µg/mL
same,MIC,[36],12.5 µg/mL
same,MIC,[37],0.78 µg/mL
same,MIC,[38],1.56 µg/mL
same,MIC,[39],0.20 µg/mL
same,MIC,[40],12.5 µg/mL
same,MIC,[41],12.5 µg/mL
same,MIC,[42],25 µg/mL
same,MIC,[43],6.25 µg/mL
same,MIC,[44],6.25 µg/mL
same,MIC,[45],25 µg/mL
same,MIC,[46],25 µg/mL
same,MIC,[47],25 µg/mL
same,MIC,[48],12.5 µg/mL
same,MIC,[49],50 µg/mL
same,MIC,[50],6.25 µg/mL
same,MIC,[51],100 µg/mL
same,antibacterial activity,[52],active not only against Pseudomonas aeruginosa but also against a variety of resistant bacteria
